# According to article PMC3517777, “Phase I study of TP300 in patients with advanced solid tumors with pharmacokinetic, pharmacogenetic and pharmacodynamic analyses” (BMC Cancer, 2012):
# Where two headings read alike, the source gives them in different places.
# Test: Plasma and urine pharmacokinetics after TP300 infusion (LC-MS/MS, non-compartmental)
# Type: in vivo, human
# Settings: for concentration at 1 h: human, in vivo, read-out: Plasma TP300 concentration 1 h after administration, mean
# Protocol: Venous blood (3 mL) was taken into sodium heparin tubes containing 30 μL of 46% citric acid, centrifuged 1500g at 4°C for 10 min and 1 mol/L hydrochloric acid was added (1:10) to plasma from each subject at 10 time points during cycle 1 (pre dose, then 1, 1.25, 1.5, 2, 3, 5, 8, 24, 48 hours after the start of administration) and stored at −70°C. Samples were processed by extraction of protein using addition of organic solvent containing internal standards and assayed by LC-MS/MS with a robust, sensitive and validated method for the simultaneous determination of a novel topoisomerase 1 inhibitor CH0793076 (TP3076), the prodrug CH4556300 (TP300), and the active metabolite CH0793011 (TP3011). All plasma had been acidified during collection to avoid the pH-based degradation of TP300 and to shift the equilibria of TP3076 and TP3011 between the lactone and carboxylate forms towards the lactone forms. After the plasma proteins were precipitated with methanol:acetonitrile:HCl 1M (50:50:1, v:v:v) containing stable isotopic internal standards, the analytes were trapped on an Xterra MS C18 column (10×2.1 mm i.d., 5 μm) and separated on a Gemini C18 column (50×2.0 mm i.d., 5 μm) using column-switching liquid chromatography. Electrospray ionization in the positive-ion mode and multiple reaction monitoring were used to quantify the analytes with transitions m/z 587.2>441.2 for TP300, 459.1>415.2 for 3076, and 475.1>361.1 for 3011. The inter- and intra-day precisions were below 12%, and the accuracy was between −16% and 16% at the lower limit of quantitation (LLOQ) and between −11% and 14% at the other quality controls. The LLOQs of TP300, TP3076, and TP3011 were 0.8, 0.04, and 0.04 ng/mL, respectively.
# Pharmacokinetic parameters derived from plasma concentration-time data of TP3076 or TP3011 by non-compartmental methods using WinNonlin (version 5.1; Pharsight Corp), included maximal plasma concentration (Cmax) and time of Cmax (Tmax), apparent plasma elimination half-life (t1/2), and the area under the curve (AUC). The urinary excretion ratio (fe) of TP3076 and TP3011 was calculated from the urinary concentration and volume up to 48 hours after administration, and the administration dose. The linearity of Cmax and AUC was determined with linear regression, analysis of variance and power model analysis. The sum of the AUCs of TP3076 and TP3011 was plotted against percentage (%) fall in nadir neutrophil count to explore the relationship between exposure and myelosuppression as a measure of anti-proliferative effect and a sigmoid Emax model fitted to the data: […]
smiles,measurement,setting,value
"CCCCCN1C=Nc2cccc3nc4c(c1c23)Cn1c-4cc2c(c1=O)COC(=O)[C@@]2(CC)OC(=O)CN(C)C(=O)CN [TP300, glycine,glycyl-N-methyl-,(9S)-9-ethyl-9,10,13,15-tetrahydro-10,13-dioxo-1-pentyl-1H,12H-pyrano[3'',4'':6′,7′]indolizino[2′,1′:5,6]pyrido[4,3,2-de]quinazolin-9-yl ester, hydro-chloride]",measured plasma concentrations 1.5 h after dose,"all doses, LLOQ of TP300 0.8 ng/mL",below the limit of the quantification
same,concentration at 1 h,TP300 2 mg/m^2,3.48 ng/mL
same,concentration at 1 h,TP300 8 mg/m^2,2.34 ng/mL
same,concentration at 1 h,TP300 10 mg/m^2,7.37 ng/mL
same,concentration at 1 h,TP300 12 mg/m^2,18.4 ng/mL
